Data set [1] is described as follows: cytotoxicity assay (Cell Titer Glo). It is filed as cell-based. As to conditions: human; 48 hr with compound, ATP-dependent Cell Titer Glo; read-out: IC50 (cytotoxicity, number of viable cells). On the procedure: Compounds 1, 3, 7, 9, 11, 13, 17, 19, 21, 27, 29, 31, 33, 35, 37, 39, 47, 49, 51, 57 and 69 were tested in a cytotoxicity assay with liver cells including an HCV replicon (5-2 Luc cells, 9-13 cells or Huh-7 cells). In the assay, cells were seeded onto 96-well plates (approx. 7500 cells/well in a volume of 90 μl) and grown for 24 hr at 37° C. On day 2, various concentrations of test compound (in a volume of 10 μl) were added to the wells and the cells were grown for an additional 48 hr at 37° C. On day 4, an ATP-dependent R-Luciferase assay (Cell Titer Glo assay) was performed to determine the number of viable cells.
In general terms: In ATP-based viability assays light output follows the ATP content of the culture.

The subject of data set [2] is HCV proteins (HCV replication). The data set is described as follows: quantitative Western blot analysis with antibodies specific for certain HCV proteins. The format is cell-based, Hepatitis C virus. As to conditions: Hepatitis C virus, read-out: Western (IC50, 50% reduction in the amount of the specified HCV protein). The procedure: Certain exemplary compounds of the invention were also tested for their ability to inhibit HCV replication using a quantitative Western blot analysis with antibodies specific for certain HCV proteins. In this assay, the amount of test compound that yielded a 50% reduction in the amount of the specified HCV protein as compared to a control sample (IC50) was determined.

Data set [3] has as its system HCV replicon (5-2 Luc replicon-comprising cells). The data set is described as follows: HCV replicon assay (luciferase reporter). The format is cell-based, Hepatitis C virus. As to conditions: Hepatitis C virus, read-out: Replicon (IC50, 50% reduction in luciferase emission). On the procedure: The inhibitory activity of certain exemplary compounds of the invention was confirmed using an HCV replicon assay. The HCV replicon can include such features as the HCV IRES, the HCV 3′ untranslated region, selected HCV genes encoding HCV polypeptides, selectable markers, and a reporter gene such as luciferase, GEP, etc. In the assay, actively dividing 5-2 Luc replicon-comprising cells were seeded at a density of between about 5,000 and 7,500 cells/well onto 96 well plates (about 90 μl of cells per well) and incubated at 37° C. and 5% CO2 for 24 hours. Then, the test compound (in a volume of about 10 μl) was added at various concentrations to each well and the cells were incubated for an additional 24 hours before luciferase assay. The cells were harvested, and HCV replication or translation was monitored via a reporter assay, e.g., a luciferase reporter assay. The media was aspirated from each cell and Bright-Glo ([…].) luciferase assay reagents were added to each well according to the manufacturer's instructions. In this assay, the amount of test compound that yielded a 50% reduction in luciferase emission (IC50) was determined.

Setting [4] is: second symbol of the Replicon/Western cell.
Where [5] appears, read: first symbol of the Replicon/Western cell, 5-2 Luc replicon cells, 24 hours with compound.

Where two headings read alike, the source gives them in different places.

As for `O=C(Nc1ccnc(-c2cc(-c3c(F)cccc3C(F)(F)F)no2)c1)C(Cl)Cl` [Compound 3, 2,2-Dichloro-N-[2-[3-(2-fluoro-6-trifluoromethylphenyl)-5-isoxazolyl]-(4-pyridyl)] Acetamide], the IC50 at 48 h in data set [1] is no less than 10 µM. Further, the IC50 in data set [2] (setting [4]) and in data set [3] (setting [5]) was less than 10 µM each time.

For `O=C(Nc1cncc(-c2cc(-c3c(Cl)cccc3Cl)no2)c1)C(Cl)Cl` [Compound 7, 2,2-Dichloro-N-[5-[3-(2,6-dichlorophenyl)-5-isoxazolyl]-(3-pyridyl)] Acetamide], the IC50 at 48 h in data set [1] was no less than 10 µM. For the same compound, the IC50 in data set [2] (setting [4]) and in data set [3] (setting [5]) was less than 10 µM in each case.

In the case of `O=C(Nc1ccnc(-c2cc(-c3c(Cl)cccc3Cl)no2)c1)C(Cl)Cl` [Compound 9, 2,2-Dichloro-N-[2-[3-(2,6-dichlorophenyl)-5-isoxazolyl]-(4-pyridyl)] Acetamide], in data set [1], the IC50 at 48 h was no less than 10 µM. Moreover, the IC50 in data set [2] and in data set [3] (24 h) was less than 10 µM in each case.

In the case of `O=C(Nc1cncc(-c2cc(-c3c(F)cccc3Cl)no2)c1)C(Cl)Cl` [Compound 13, 2,2-Dichloro-N-[5-[3-(2-chloro-6-fluorophenyl)-5-isoxazolyl]-(3-pyridyl)] Acetamide], the IC50 at 48 h in data set [1] was 3 µM. The IC50 in data set [2] (setting [4]) and in data set [3] (setting [5]) was less than 10 µM each time.

For the compound `COc1cccc(F)c1-c1cc(-c2cncc(NC(=O)C(Cl)Cl)c2)on1` [Compound 17, 272-Dichloro-N-[5-[3-(2-fluoro-6-methoxyphenyl)-5-isoxazolyl]-(3-pyridyl)] Acetamide], the IC50 at 48 h in data set [1] is no less than 10 µM. Further, the IC50 in data set [2] (setting [4]) and in data set [3] (setting [5]) was less than 10 µM throughout.

In the case of `Cc1cccc(C)c1-c1cc(-c2cncc(NC(=O)C(Cl)Cl)c2)on1` [Compound 21, 2,2-Dichloro-N-[5-[3-(2,6-dimethylphenyl)-5-isoxazolyl]-(3-pyridyl)] Acetamide], in data set [1], the IC50 at 48 h was no less than 10 µM. Moreover, the figures for the IC50 in data set [2] (setting [4]) and in data set [3] (setting [5]) were greater than 10 µM and less than 10 µM, respectively.

`O=C(Nc1cncc(-c2cc(-c3c(F)cccc3F)no2)c1)C(Cl)Cl` [Compound 27, 2,2-Dichloro-N-[5-[3-(2,6-difluorophenyl)-5-isoxazolyl]-(3-pyridyl)] Acetamide]: the IC50 at 48 h in data set [1] was no less than 10 µM. The IC50 in data set [2] (setting [4]) and in data set [3] (setting [5]) was less than 10 µM each time.

`COc1cccc(C(F)(F)F)c1-c1cc(-c2cc(NC(=O)C(Cl)Cl)ccn2)on1` [Compound 49, 2,2-Dichloro-N-[2-[3-(2-methoxy-6-trifluoromethylphenyl)-5-isoxazolyl]-(4-pyridyl)] Acetamide]: in data set [1], the IC50 at 48 h is no less than 10 µM. Further, the IC50 in data set [2] (setting [4]) and in data set [3] (setting [5]) was less than 10 µM in each case.

For `COc1cccc(C(F)(F)F)c1-c1cc(-c2cncc(NC(=O)C(Cl)Cl)c2)on1` [Compound 57, 2,2-Dichloro-N-[5-[3-(2-methoxy-6-trifluoromethylphenyl)-5-isoxazolyl]-(3-pyridyl)] Acetamide], the IC50 at 48 h in data set [1] is greater than 5 µM. In addition, the IC50 in data set [2] (setting [4]) and in data set [3] (setting [5]) was less than 10 µM throughout.

By IC50 is commonly meant the point on the concentration scale where inhibition reaches its midpoint.

These data come from patent publication US7332602B2, “Pyridyl substituted heterocycles useful for treating or preventing HCV infection” (Rigel Pharmaceuticals, Inc., priority 2002, dated 2008).
